{"source": "patent US6822146B2", "about": "“Sulfonylurea-tolerant sunflower line M7” (priority 2000, dated 2004)", "key": {"[1]": {"test_system": "homozygous progeny of the three mutant sources", "format": "in vivo, sunflower", "details": "Test B application rates, post-emergence", "method": "(§1) A greenhouse experiment was conducted to evaluate the spectrum of tolerance of three homozygous resistant mutants to various herbicides inhibiting acetolactate synthase (ALS) as their mode of action. The inbred lines tested were the 5th generation self-pollinated maintainers, M5M7, M5M11 and M5M12, as well as the 4th generation male sterile back-crosses BC4-M5M7, BC4-M5M11 and BC4-M5M12. Treatments of formulated herbicides were applied post-emergence at the 4-leaf stage. Application rates of the test herbicides were chosen to coincide with the rates commonly used in the crops for which they are registered. The application rate of imazethapyr was chosen to match the rate recommended to control parasitic weeds in sunflowers by L. García-Torres et al., Weed Technology 1995, 9, 819-824. Wild type H89 inbred sunflower was not included in this test, because the many of the tested herbicides are known to be efficacious in controlling volunteer sunflower as a weed. Treatments were replicated twice. […] A rating of 0% phytotoxicity means no crop injury."}, "[2]": {"test_system": "Homozygous resistant inbred lines, BC3-M4M12 (I), BC3-M4M11 (J) and BC3-M4M7 (K)", "assay": "Test A summary, homozygous resistant inbred lines", "details": "in vivo", "method": "In a small field trial, the sunflower varieties described in Table 4 were sprayed post-emergence with a variety of sulfonylurea herbicide treatments.\nBroadcast post-emergence applications of formulated sulfonylurea herbicides were performed at the 6-leaf development stage using four randomly distributed replications. Application rates were chosen to match the usual use rates of these herbicides in the crops they are registered in Europe. All herbicides except for metsulfuron-methyl were sprayed in combination with Citowet® non-ionic ethoxylated alcohol at 0.25% volume of formulated product per volume of water applied per hectare.\nThe evaluation of the maximum (i.e. peak) injury to sunflower varieties by sulfonylurea herbicides was measured by visual ratings, which are listed in Table 5. A rating of 0% phytotoxicity means no crop injury. […] A rating of 100% means the complete destruction of all plants."}, "[3]": {"test_system": "acetolactate synthase (ALS) from M2E24", "assay": "ALS activity remaining, M2E24 extract", "format": "biochemical, sunflower", "details": "mutant line selected with rimsulfuron, in the presence of rimsulfuron"}, "M5M7": {"test_system": "M5M7", "assay": "Test B greenhouse phytotoxicity, M5M7", "format": "in vivo, sunflower", "details": "in vivo", "method": "as §1"}, "M5M11": {"test_system": "M5M11", "assay": "Test B greenhouse phytotoxicity, M5M11", "format": "in vivo, sunflower", "details": "in vivo", "method": "as §1"}, "'M11'": {"test_system": "'M11'", "assay": "Tolerance of M11 to rimsulfuron", "details": "in vivo"}, "BC4-M5M11": {"test_system": "BC4-M5M11", "assay": "Test B greenhouse phytotoxicity, BC4-M5M11", "format": "in vivo, sunflower", "details": "in vivo", "method": "as §1"}, "M5M12": {"test_system": "M5M12", "assay": "Test B greenhouse phytotoxicity, M5M12", "format": "in vivo, sunflower", "details": "in vivo", "method": "as §1"}, "BC4-M5M12": {"test_system": "BC4-M5M12", "assay": "Test B greenhouse phytotoxicity, BC4-M5M12", "format": "in vivo, sunflower", "details": "in vivo", "method": "as §1"}, "[4]": {"test_system": "Hybrid control: H89A × RHA274", "format": "in vivo, sunflower", "details": "variety A", "text": "(§2) To generate the hybrids C, D and E, the fourth generation self-pollinated maintainer mutant lines M4M12, M4M11 and M4M7 were chemically sterilized by applying at the bud “star” flower stage a small amount of gibberellic acid solution to sterilize the pollen according to the general method described in Sunflower Science Technology, J. F. Carter ed. (Number 19 in the series “Agronomy”) pp. 339-386. This treatment enables maintainer plants to behave as CMS inbred lines and allows the production of heterozygous resistant hybrids, with the herbicide resistant source coming from the female side. Such crosses allowed evaluating the sexual effect of the mutation source when introduced on the female side of a cross as described in crosses C, D and E versus the male side of a cross as described in crosses F, G and H. Labels I, J and K identify third generation CMS mutant lines crossed with fourth generation maintainer lines to maintain the highly heritable mutant trait in a male sterile homozygous resistant environment. One skilled in sunflower breeding art understands the meaning of such crosses.\n(§3) A rating of 0% phytotoxicity means no crop injury."}, "H89A × M4M12": {"test_system": "H89A × M4M12", "format": "in vivo, sunflower", "details": "variety F", "text": "as §2, §3"}, "[5]": {"test_system": "Inbred line control: H89A", "format": "in vivo, sunflower", "details": "variety B", "text": "as §2, §3"}, "H89A × M4M11": {"test_system": "H89A × M4M11", "format": "in vivo, sunflower", "details": "variety G", "text": "as §2, §3"}, "H89A × M4M7": {"test_system": "H89A × M4M7", "format": "in vivo, sunflower", "details": "variety H", "text": "as §2, §3"}, "BC4-M5M7": {"test_system": "BC4-M5M7", "assay": "Test B greenhouse phytotoxicity, BC4-M5M7", "format": "in vivo, sunflower", "details": "in vivo", "method": "as §1"}, "[6]": {"test_system": "mutants originating from M11 and M12", "details": "tribenuron-methyl up to 60 g a.i./ha; others at Test G rates", "text": "This test involved sulfonylurea-resistant sunflower progeny BC2-M3M11 and BC2-M3M12, derived from M11 and M12, respectively. Also, a sulfonylurea-susceptible hybrid, H89A×RHA274, was included for comparison. Plants were sprayed with formulated herbicides at the 4-leaf stage. The efficacy of the treatments on the sunflowers was visually rated 4 weeks after application, using a scale where 0 means no control of the sunflowers, 85 means sufficient efficacy level to stop plants from flowering and propagating, and 100 means a complete destruction of the mutants.\nWeed control in sugar beet requires 2-3 herbicide applications per season to efficiently control weeds in this slow growing crop."}, "BC2-M3M12": {"test_system": "BC2-M3M12", "assay": "Test G control of volunteer sunflower, BC2-M3M12", "format": "in vivo", "details": "rated 4 weeks after application, scale 0-100"}, "BC2-M3M11": {"test_system": "BC2-M3M11", "assay": "Test G control of volunteer sunflower, BC2-M3M11", "format": "in vivo", "details": "rated 4 weeks after application, scale 0-100"}, "[7]": {"test_system": "H89A × RHA274 (sulfonylurea-susceptible hybrid)", "assay": "Test G control of volunteer sunflower, H89A × RHA274", "format": "in vivo", "details": "rated 4 weeks after application, scale 0-100"}, "[8]": {"test_system": "ALS enzymes of the mutant lines selected with thifensulfuron-methyl", "assay": "ALS activity of mutant lines relative to wild-type H89B", "format": "biochemical, sunflower", "details": "in the presence of thifensulfuron-methyl"}}, "note": "Where two headings read alike, the source gives them in different places.", "data": [{"smiles": "CCS(=O)(=O)c1cccnc1S(=O)(=O)NC(=O)Nc1nc(OC)cc(OC)n1", "note": "[Rimsulfuron, rimsulfuron]", "values": [{"measurement": "tolerance of the mutants", "setting": "[1]", "result": "somewhat sensitive"}, {"measurement": "tolerance of homozygous resistant inbred lines I, J, K", "setting": "[2]", "result": "as susceptible as the standards"}, {"measurement": "ALS activity retained relative to wild-type ALS from H89B", "setting": "[3]", "result": "4-6 times"}, {"measurement": "Maximum Phytotoxicity", "setting": "M5M7", "result": 52.5, "unit": "%"}, {"measurement": "Maximum Phytotoxicity", "setting": "M5M11", "result": 65, "unit": "%"}, {"measurement": "tolerance of M11", "setting": "'M11'", "result": "not tolerant"}, {"measurement": "Maximum Phytotoxicity", "setting": "BC4-M5M11", "result": 47.5, "unit": "%"}, {"measurement": "Maximum Phytotoxicity", "setting": "M5M12", "result": 55, "unit": "%"}, {"measurement": "Maximum Phytotoxicity", "setting": "BC4-M5M12", "result": 65, "unit": "%"}, {"measurement": "Maximum Phytotoxicity", "setting": "[4]; 15 g a.i./ha post-emergence", "result": 100, "unit": "%"}, {"measurement": "Maximum Phytotoxicity", "setting": "[4]; 30 g a.i./ha post-emergence", "result": 100, "unit": "%"}, {"measurement": "Maximum Phytotoxicity", "setting": "H89A × M4M12; 15 g a.i./ha post-emergence", "result": 98, "unit": "%"}, {"measurement": "Maximum Phytotoxicity", "setting": "H89A × M4M12; 30 g a.i./ha post-emergence", "result": 100, "unit": "%"}, {"measurement": "Maximum Phytotoxicity", "setting": "[5]; 15 g a.i./ha post-emergence", "result": 100, "unit": "%"}, {"measurement": "Maximum Phytotoxicity", "setting": "[5]; 30 g a.i./ha post-emergence", "result": 100, "unit": "%"}, {"measurement": "Maximum Phytotoxicity", "setting": "H89A × M4M11; 15 g a.i./ha post-emergence", "result": 98, "unit": "%"}, {"measurement": "Maximum Phytotoxicity", "setting": "H89A × M4M11; 30 g a.i./ha post-emergence", "result": 100, "unit": "%"}, {"measurement": "Maximum Phytotoxicity", "setting": "H89A × M4M7; 15 g a.i./ha post-emergence", "result": 96, "unit": "%"}, {"measurement": "Maximum Phytotoxicity", "setting": "H89A × M4M7; 30 g a.i./ha post-emergence", "result": 100, "unit": "%"}, {"measurement": "Maximum Phytotoxicity", "setting": "BC4-M5M7", "result": 45, "unit": "%"}]}, {"smiles": "COC(=O)c1sccc1S(=O)(=O)NC(=O)Nc1nc(C)nc(OC)n1", "note": "[Thifensulfuron-methyl, thifensulfuron-methyl]", "values": [{"measurement": "tolerance of homozygous resistant inbred lines I, J, K", "setting": "[2]", "result": "less susceptible than the standards"}, {"measurement": "tolerance of homozygous resistant lines compared with heterozygous hybrids", "setting": "[2]", "result": "the homozygous resistant lines were more tolerant"}, {"measurement": "resistance/tolerance of the mutants", "setting": "[6]", "result": "to a lesser extent than with tribenuron-methyl"}, {"measurement": "Efficacy on BC2-M3M12", "setting": "BC2-M3M12; 10 g a.i./ha", "result": 10}, {"measurement": "Efficacy on BC2-M3M12", "setting": "BC2-M3M12; 20 g a.i./ha", "result": 16}, {"measurement": "Efficacy on BC2-M3M12", "setting": "BC2-M3M12; 40 g a.i./ha", "result": 32}, {"measurement": "Efficacy on BC2-M3M12", "setting": "BC2-M3M12; 60 g a.i./ha", "result": 58}, {"measurement": "Efficacy on BC2-M3M11", "setting": "BC2-M3M11; 10 g a.i./ha", "result": 2}, {"measurement": "Efficacy on BC2-M3M11", "setting": "BC2-M3M11; 20 g a.i./ha", "result": 17}, {"measurement": "Efficacy on BC2-M3M11", "setting": "BC2-M3M11; 40 g a.i./ha", "result": 50}, {"measurement": "Efficacy on BC2-M3M11", "setting": "BC2-M3M11; 60 g a.i./ha", "result": 74}, {"measurement": "Maximum Phytotoxicity", "setting": "[4]; 35 g a.i./ha post-emergence", "result": 100, "unit": "%"}, {"measurement": "Maximum Phytotoxicity", "setting": "[4]; 70 g a.i./ha post-emergence", "result": 99, "unit": "%"}, {"measurement": "Maximum Phytotoxicity", "setting": "H89A × M4M12; 35 g a.i./ha post-emergence", "result": 78, "unit": "%"}, {"measurement": "Maximum Phytotoxicity", "setting": "H89A × M4M12; 70 g a.i./ha post-emergence", "result": 89, "unit": "%"}, {"measurement": "Maximum Phytotoxicity", "setting": "[5]; 35 g a.i./ha post-emergence", "result": 100, "unit": "%"}, {"measurement": "Maximum Phytotoxicity", "setting": "[5]; 70 g a.i./ha post-emergence", "result": 100, "unit": "%"}, {"measurement": "Maximum Phytotoxicity", "setting": "H89A × M4M11; 35 g a.i./ha post-emergence", "result": 81, "unit": "%"}, {"measurement": "Maximum Phytotoxicity", "setting": "H89A × M4M11; 70 g a.i./ha post-emergence", "result": 90, "unit": "%"}, {"measurement": "Maximum Phytotoxicity", "setting": "H89A × M4M7; 35 g a.i./ha post-emergence", "result": 80, "unit": "%"}, {"measurement": "Maximum Phytotoxicity", "setting": "H89A × M4M7; 70 g a.i./ha post-emergence", "result": 90, "unit": "%"}, {"measurement": "Efficacy on H89A × RHA274", "setting": "[7]; 10 g a.i./ha, 4-leaf stage", "result": 100}, {"measurement": "Efficacy on H89A × RHA274", "setting": "[7]; 20 g a.i./ha", "result": 100}, {"measurement": "Efficacy on H89A × RHA274", "setting": "[7]; 40 g a.i./ha", "result": 100}, {"measurement": "Efficacy on H89A × RHA274", "setting": "[7]; 60 g a.i./ha", "result": 100}, {"measurement": "ALS activity retained relative to wild-type ALS from H89B", "setting": "[8]", "result": "2-6 times"}]}]}
